21 compounds from patent publication US11559538B2, “Substituted 1,2-oxaborolan-2-ols as PDE4 inhibitors” (Pfizer Inc., priority 2018, dated 2023) can be followed below.

In one test the test system is IL-13. In words: Cytokine assay: IL-13 release from PHA-L stimulated human PBMCs. In kind it is cell-based. The settings on record: Homo sapiens, PBMC, read-out: IL13 IC50. Put shortly: (§1)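 Thawed cryopreserved human PBMCs (~250,000 cells/well) in RPMI 1640 with 10% heat-inactivated FBS were treated with compound for ~10 min at room temperature, then stimulated with 3.5 μg/mL PHA-L (final) for 48 h at 37° C. Supernatant cytokine was measured by HTRF, and IC50 was derived by four-parameter logistic fit.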

In test [1] the target is PDE4B (aa 152-484, Uniprot ID Q07343) (Homo sapiens (Human), UniProt Q07343). The test is described as follows: PDE4 SPA assay (scintillation proximity assay). The note with it: read-out: PDE4B2 IC50. In kind it is biochemical. Put shortly: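 PDE4B (aa 152-484, ~81.6 pM) preincubated ~10 min with compound, then 1 μM ³H/unlabeled cAMP added in Tris pH 7.5, 1.3 mM MgCl2, 0.004% Brij 35, ~2% DMSO; 30 min at RT. Product captured on SPA beads and counted; IC50 by four-parameter logistic fit.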
Chain of PDE4B (aa 152-484, Uniprot ID Q07343) (Q07343 324-656): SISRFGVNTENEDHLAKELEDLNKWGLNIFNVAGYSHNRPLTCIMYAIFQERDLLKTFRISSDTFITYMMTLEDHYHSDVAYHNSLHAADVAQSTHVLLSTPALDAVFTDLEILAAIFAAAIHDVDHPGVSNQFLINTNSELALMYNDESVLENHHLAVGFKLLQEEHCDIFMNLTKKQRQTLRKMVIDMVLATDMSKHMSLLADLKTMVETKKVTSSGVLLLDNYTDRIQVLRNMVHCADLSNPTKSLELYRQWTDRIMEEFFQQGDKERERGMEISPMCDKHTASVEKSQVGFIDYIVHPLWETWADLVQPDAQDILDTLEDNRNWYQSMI
(In a scintillation proximity assay essentially only radioactivity close to the scintillant gives light.)

The test system of another test is IFNγ. The test is described as follows: Cytokine assay: IFNγ release from PHA-L stimulated human PBMCs. Type of test: cell-based. The settings on record: Homo sapiens, PBMC. Put shortly:
as §1

The subject of a further test is IL-4. The test is described as follows: Cytokine assay: IL-4 release from PHA-L stimulated human PBMCs. Type of test: cell-based. The note with it: Homo sapiens, PBMC, read-out: IL4 IC50. Put shortly: as §1

Usually IC50 stands for the concentration at which inhibition is half-maximal. For the compound `CCOc1c(OC)ccc(-c2cccc(C3COB(O)C3)c2)c1F` (stereo not drawn) [Example 166, 4-(3′-ethoxy-2′-fluoro-4′-methoxy-[1,1′-biphenyl]-3-yl)-1,2-oxaborolan-2-ol], the IC50 in the test on IL-13 was determined as 1010 nM; in test [1], 0.97 nM; with IFNγ, 5.46 nM; in the test with IL-4, 49.2 nM.

As to `CCCOc1c(OC)ccc(-c2cncc(C3COB(O)C3)c2)c1OC` (stereo not drawn) [Example 167, 4-(5-(2,4-dimethoxy-3-propoxphenyl)pyridin-3-yl)-1,2-oxaborolan-2-ol], the IC50 is 2790 nM in the test on IL-13, 1.98 nM in test [1], 1.13 nM with IFNγ and 1.37 nM in the test on IL-4.

On to `COc1ccc(-c2cncc(C3COB(O)C3)c2)cc1OC1CCSCC1` (stereo not drawn) [Example 169, 4-(5-(4-methoxy-3-((tetrahydro-2H-thiopyran-4-yl)oxy)phenyl)pyridin-3-yl)-1,2-oxaborolan-2-ol], for which the IC50 is 2020 nM in the test with IL-13, 2.85 nM in test [1], 5.84 nM with IFNγ and 33 nM in the test with IL-4.

Consider `CCOc1cc(-c2cc(C3COB(O)C3)cnc2CC)ccc1OC` (stereo not drawn) [Example 171, 4-(5-(3-ethoxy-4-methoxyphenyl)-6-ethylpyridin-3-yl)-1,2-oxaborolan-2-ol], for which the IC50 turned out to be 1350 nM in the test on IL-13, 1.73 nM in test [1], 3.22 nM in the test with IFNγ and 2.43 nM with IL-4.

For `CCOc1cc(-c2cccc(C3COB(O)C3)c2)ccc1SC` (stereo not drawn) [Example 172, 4-(3′-ethoxy-4′-(methylthio)-[1,1′-biphenyl]-3-yl)-1,2-oxaborolan-2-ol], the IC50 in the test on IL-13 came out at 1110 nM; in test [1] it was 1.76 nM; in the test on IFNγ it was 27.5 nM; with IL-4 it was 269 nM.

On to `COc1cnc(-c2cccc(C3COB(O)C3)c2)cc1OC` (stereo not drawn) [Example 174, 4-(3-(4,5-dimethoxypyridin-2-yl)phenyl)-1,2-oxaborolan-2-ol], for which the IC50 with IL-13 came to 1140 nM; in test [1], 8.57 nM; in the test on IFNγ it was 14.4 nM; with IL-4, 279 nM.

Consider `COc1cc(-c2ccc(OC)c(OC3CCCC3)c2)nc(C2COB(O)C2)n1` (stereo not drawn) [Example 175, 4-(4-(3-(cyclopentyloxy)-4-methoxyphenyl)-6-methoxypyrimidin-2-yl)-1,2-oxaborolan-2-ol], for which the IC50 turned out to be 2310 nM with IL-13, 5.03 nM in test [1], 4.35 nM with IFNγ and 14.3 nM in the test with IL-4.

For `CCCOc1cc(-c2cncc(C3COB(O)C3)c2)ncc1OC` (stereo not drawn) [Example 178], the IC50 in the test with IL-13 turned out to be 1280 nM; in test [1], 2.02 nM; in the test on IFNγ it was 0.91 nM; in the test on IL-4, 1.81 nM.

As to `CCOc1ccc(-c2cccc(C3COB(O)C3)c2)cc1OC` (stereo not drawn) [Example 182, 4-(4′-ethoxy-3′-methoxy-[1,1′-biphenyl]-3-yl)-1,2-oxaborolan-2-ol], the IC50 turned out to be 1330 nM in the test on IL-13, 5.14 nM in test [1], 19.6 nM in the test on IFNγ and 245 nM in the test on IL-4.

`COc1ccc(-c2cccc(C3COB(O)C3)c2)cc1OC1CCC1` (stereo not drawn) [Example 184, 4-(3′-cyclobutoxy-4′-methoxy-[1,1′-biphenyl]-3-yl)-1,2-oxaborolan-2-ol]: the IC50 worked out at 1400 nM in the test with IL-13, 0.8 nM in test [1], 4.48 nM in the test with IFNγ and 79.2 nM in the test on IL-4.

Regarding `CCOc1cc(-c2nc(OC)cc(C3COB(O)C3)n2)ccc1OC` (stereo not drawn) [Example 185, 4-(2-(3-ethoxy-4-methoxyphenyl)-6-methoxypyrimidin-4-yl)-1,2-oxaborolan-2-ol], the IC50 came to 2980 nM in the test with IL-13, 3.38 nM in test [1], 1.3 nM in the test with IFNγ and 5.75 nM in the test with IL-4.

`CCOc1ccc(-c2cncc(C3COB(O)C3)c2)cc1OC` (stereo not drawn) [Example 187, 4-(5-(4-ethoxy-3-methoxyphenyl)pyridin-3-yl)-1,2-oxaborolan-2-ol]: the IC50 with IL-13 was determined as 1420 nM; in test [1] it was 4.28 nM; with IFNγ, 8.84 nM; in the test on IL-4, 41.1 nM.

Take `CCOc1c(OC)ccc(-c2cccc(C3COB(O)C3)c2)c1C#N` (stereo not drawn) [Example 191, 3-ethoxy-3′-(2-hydroxy-1,2-oxaborolan-4-yl)-4-methoxy-[1,1′-biphenyl]-2-carbonitrile]: the IC50 with IL-13 was determined as 1500 nM; in test [1], 3.84 nM; in the test on IFNγ it was 4.42 nM; in the test on IL-4, 176 nM.

In the case of `CCCOc1cc(-c2cc(CO)nc(C3COB(O)C3)n2)ccc1OC` (stereo not drawn) [Example 198, 4-(4-(hydroxymethyl)-6-(4-methoxy-3-propoxyphenyl)pyrimidin-2-yl)-1,2-oxaborolan-2-ol], the IC50 in the test with IL-13 was determined as 1580 nM; in test [1], 14.3 nM; in the test on IFNγ, 4.85 nM; in the test with IL-4 it was 14.2 nM.

`CCOc1c(OC)ccc(-c2cccc(C3COB(O)C3)n2)c1F` (stereo not drawn) [Example 199, 4-(6-(3-ethoxy-2-fluoro-4-methoxyphenyl)pyridin-2-yl)-1,2-oxaborolan-2-ol]: the IC50 was found to be 1590 nM in the test on IL-13, 10.4 nM in test [1], 4.55 nM in the test with IFNγ and 90.4 nM in the test with IL-4.

Consider `CCCOc1cc(-n2ccc(C3COB(O)C3)n2)ccc1OC` (stereo not drawn) [Example 200, 4-(1-(4-methoxy-3-propoxyphenyl)-1H-pyrazol-3-yl)-1,2-oxaborolan-2-ol], for which the IC50 came out at 1600 nM in the test on IL-13, 12.9 nM in test [1], 14.1 nM with IFNγ and 128 nM in the test with IL-4.

For `COc1cc(-c2cncc(C3COB(O)C3)c2)ccc1SC` (stereo not drawn) [Example 201, 4-(5-(3-methoxy-4-(methylthio)phenyl)pyridin-3-yl)-1,2-oxaborolan-2-ol], the IC50 with IL-13 was 1660 nM; in test [1] it was 2.13 nM; in the test with IFNγ, 9.51 nM; in the test on IL-4 it was 105 nM.

As for `CCCOc1cc(-c2cc(C3COB(O)C3)cc(CO)n2)ccc1OC` (stereo not drawn) [Example 202, 4-(2-(hydroxymethyl)-6-(4-methoxy-3-propoxyphenyl)pyridin-4-yl)-1,2-oxaborolan-2-ol], the half-inhibitory concentration (IC50) with IL-13 came out at 1670 nM; in test [1], 4.29 nM; in the test on IFNγ, 8.51 nM; with IL-4 it was 5.2 nM.

In the case of `CCOc1cc(-c2cccc(C3COB(O)C3)n2)ccc1SC` (stereo not drawn) [Example 203, 4-(6-(3-ethoxy-4-(methylthio)phenyl)pyridin-2-yl)-1,2-oxaborolan-2-ol], the IC50 in the test on IL-13 worked out at 2180 nM; in test [1] it was 15 nM; in the test with IFNγ, 114 nM; in the test with IL-4 it was 176 nM.

In the case of `COc1cc(-c2cccc(C3COB(O)C3)c2)ccc1SC` (stereo not drawn) [Example 206, 4-(3′-methoxy-4′-(methylthio)-[1,1′-biphenyl]-3-yl)-1,2-oxaborolan-2-ol], the IC50 with IL-13 worked out at 1790 nM; in test [1], 2.65 nM; in the test with IFNγ it was 27.8 nM; in the test with IL-4, 113 nM.

On to `COc1ccc(-c2cc(C)cc(C3COB(O)C3)c2)cc1OC` (stereo not drawn) [Example 207, 4-(3′,4′-dimethoxy-5-methyl-[1,1′-biphenyl]-3-yl)-1,2-oxaborolan-2-ol], for which the IC50 with IL-13 is 1800 nM; in test [1] it was 10.3 nM; in the test on IFNγ it was 53.5 nM; in the test on IL-4, 390 nM.
